# From patent US9957236B2, “Selective inhibitors interfering with fibroblast growth factor receptor and FRS2 interaction for the prevention and treatment of cancer and other diseases” (LIMITED LIABILITY COMPANY “RUSSIAN PHARMACEUTICAL …, priority 2014, dated 2018)
# Legend:
# [1] = reaction of immune complexes, general anaphylaxis, degranulation of mast cells, conjuctival test
# [2] = test system: non-small cell lung cancer NCI-H226; assay: Tumor growth of NCI-H226 xenograft in nude mice; assay type: in vivo; details: 30 day; NCI-H226 not expressing FGFR2, 30 mg/kg daily through a stomach tube; P=0.619 vs control
# Procedure: (§1) Females of immunodeficient mice (nude) at the age of 8 weeks were administered 2×10^6 tumor cells of human cell lines with various expression of FGFR2: • cell line of triple-negative breast cancer SUM52PE strongly expressing FGFR2 (purchased from Asterand, Inc. (Detroit, Mich.) • cell line of triple negative breast cancer HS578T weakly expressing FGFR2 (purchased from ATCC (CRL-125) • cell line of non-small cell lung cancer NCI-H226 not expressing FGFR2 (purchased from ATCC (CRL-5826)
# (§2) After the tumor growth got established (1 mm^3), the mice were divided into control and treatment groups in accordance with the tumor type.
# Control group 3 (N=10): NCI-H226, administration of water through a stomach tube, daily.
# Treatment group 3 (N=10): NCI-H226, administration of inhibiter RPT835 through a stomach tube in a dose of 30 mg/kg, daily.
# (§3) Size of tumor and weight of animals were measured every 3 day. The mice underwent euthanasia when the tumor reached the size of 2,000 mm^3 or on the 60 day of the experiment.
# [3] = test system: triple negative breast cancer SUM52PE; assay: Tumor growth of SUM52PE xenograft in nude mice; assay type: in vivo
# Procedure: as §1, §2
# Control group 1 (N=10): SUM52PE, administration of water through a stomach tube, daily.
# Treatment group 1 (N=10): SUM52PE, administration of inhibitor RPT835 through a stomach tube in a dose of 30 mg/kg, daily.
# as §3
# [4] = biological target: T1, FRS2α (Homo sapiens, UniProt Q8WU20); assay: FRS2α phosphorylation in breast cancer cells MDA MB 134 (FGFR1 system); assay type: cell-based; parameters: endogenous in cells; host or cells: MDA MB 134; details: MDA MB 134 cells
# T1 sequence (Q8WU20 1-508): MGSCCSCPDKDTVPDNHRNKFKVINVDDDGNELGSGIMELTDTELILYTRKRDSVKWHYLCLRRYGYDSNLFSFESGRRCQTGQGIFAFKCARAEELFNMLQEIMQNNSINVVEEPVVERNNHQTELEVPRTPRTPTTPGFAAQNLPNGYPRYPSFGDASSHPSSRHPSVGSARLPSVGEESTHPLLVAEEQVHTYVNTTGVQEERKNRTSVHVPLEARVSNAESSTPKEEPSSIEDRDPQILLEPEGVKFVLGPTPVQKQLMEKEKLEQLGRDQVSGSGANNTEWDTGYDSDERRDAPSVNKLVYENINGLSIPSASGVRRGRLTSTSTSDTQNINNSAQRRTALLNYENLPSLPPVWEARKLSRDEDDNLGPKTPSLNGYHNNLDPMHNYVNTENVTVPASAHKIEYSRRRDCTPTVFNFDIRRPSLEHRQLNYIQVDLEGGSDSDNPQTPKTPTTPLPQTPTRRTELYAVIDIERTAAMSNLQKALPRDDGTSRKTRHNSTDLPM
# Source text: The purpose of this research was assessment of specific action of inhibitor RPT835 specified in this invention with formula II, on interaction of […] and FRS2 and assessment of influence on interaction of other types of FGFR and FRS2. For the experiment, 2 cell lines were selected: • stomach cancer KATO III, expressing FGFR2, and • breast cancer MDA MB 134, expressing FGFR1.
# The research procedure was the same as in the previous examples: the cells were cultivated in presence of RPT835 followed by stimulation with FGF-2 and heparin. The other part of the cells was cultivated in presence of RPT835. Phosphorylation of FGFR1 (in breast cancer cells) and FGFR2 (in stomach cancer cells), and also FRS2a (in the both cell lines) and some intracellular kinases (in breast cancer cells) was assessed using manual and automated Western blotting.
# [5] = test system: Mel Kor metastatic melanoma cells; assay: Crystal Violet proliferation assay, Mel Kor; assay type: cell-based; details: hardly expressed FGFR2, bFGF 100 ng/ml, 7 days
# Source text: This research used additional cell lines: SKOV3 (ovarian cancer, ATCC # HTB-77), HS578T (breast cancer, ATCC # HTB-126), T47D (breast cancer, ATCC #HTB-1336), modified line of non-small cells lung cancer A549, line of metastatic melanoma of skin Mel Kor (RF Patent No. 2287578), and additional study of antiangiogenic activity—cell line SVEC-4-10 (endothelial cells, ATCC #CRL-2181).
# The cells were cultivated in environment RPMI-1640 (PANECO) (SKOV3, HS578T, T47D, Mel-Kor) or DMEM (PANECO) (SVEC-4-10) containing 10% of embryonal serum cattle (FCS, HyClone), 2 mM glutamine (PANECO), antibiotics (100 IU/mL penicillin and […] streptomycin (all PANECO)) at 37° C. and 5% CO2. Cells at 70-80% monolayer were used for the experiments.
# The cells were planted in low density (30 t of cells/ml) in triplets on a 96-cavity plate in an environment containing 0.1% of FCS serum. […] Growth of cells was determined by the modified “Crystal Violet mitogenic method” for 7 days after the experiment start. […] The dye was dissolved in ethanol and measured on a spectrophotometer at 540-560 nm. The curve of cell proliferative activity inhibition was built by the dependence of the percent of the cell quantity (Y axis) on concentration of inhibitor RPT835 in the cavity of the plate (X axis). […]
smiles,measurement,setting,value
"Cc1cc([N+](=O)[O-])c(NS(=O)(=O)c2cccc(C(=O)O)c2)cc1-c1cccnc1 [RPT835, 3-(N-(4-methyl-2-nitro-5-(pyridin-3-yl)phenyl)sulfamoyl)benzoic acid]",allergic properties,[1],does not show any allergic properties
same,average tumor volume,[2],"1,053±259.7 mm3"
same,Slowdown of the tumor growth,"[3]; 30 day, 30 mg/kg daily",60.2%
same,average size of the tumor,"[3]; 30 day, 30 mg/kg daily through a stomach tube","1,080.7±49 mm3"
same,Size of tumor (median),"[3]; Day 7, 30 mg/kg daily through a stomach tube",48.0 mm3
same,Size of tumor (median),"[3]; Day 10, 30 mg/kg daily through a stomach tube",112.0 mm3
same,Size of tumor (median),"[3]; Day 13, 30 mg/kg daily through a stomach tube",181.0 mm3
same,Size of tumor (median),"[3]; Day 16, 30 mg/kg daily through a stomach tube",256.0 mm3
same,Size of tumor (median),"[3]; Day 19, 30 mg/kg daily through a stomach tube",417.0 mm3
same,Size of tumor (median),"[3]; Day 22, 30 mg/kg daily through a stomach tube",591.0 mm3
same,Size of tumor (median),"[3]; Day 25, 30 mg/kg daily through a stomach tube",831.5 mm3
same,Size of tumor (median),"[3]; Day 28, 30 mg/kg daily through a stomach tube",958.5 mm3
same,Size of tumor (median),"[3]; Day 31, 30 mg/kg daily through a stomach tube","1,088.0 mm3"
same,Size of tumor (median),"[3]; Day 34, 30 mg/kg daily through a stomach tube","1,134 mm3"
same,Size of tumor (median),"[3]; Day 37, 30 mg/kg daily through a stomach tube","1,174 mm3"
same,Size of tumor (median),"[3]; Day 40, 30 mg/kg daily through a stomach tube","1,208 mm3"
same,phosphorylation of FRS2α (system FGFR1),[4],did not have influence
same,inhibition of proliferative activity,[5],did not block
